# According to ChEMBL document CHEMBL3046605, “Biocontrol of rice blast by the phenaminomethylacetic acid producer of Bacillus methylotrophicus strain BC79” (2013):
# How the values were obtained:
# Type in all cases: functional
# Pyricularia oryzae [1] = test: Antifungal activity against Magnaporthe oryzae in rice seedlings assessed as rice blast disease incidence at 15% with formulation dose of 400 g/667 m'2 applied using knapsack sprayer measured under field trials (reference value: 43.7 +/-5.4%)
# Pyricularia oryzae [2] = test: Antifungal activity against Magnaporthe oryzae in rice seedlings assessed as rice blast disease control efficacy at 15% with formulation dose of 400 g/667 m'2 applied using knapsack sprayer measured under field trials
# Pyricularia oryzae [3] = test: Antifungal activity against Magnaporthe oryzae in rice seedlings assessed as rice blast disease control efficacy at 15% with formulation dose of 200 g/667 m'2 applied using knapsack sprayer measured under field trials
# Pyricularia oryzae [4] = test: Antifungal activity against Magnaporthe oryzae in rice seedlings assessed as rice blast disease incidence treated after fungal inoculation at 15% measured under green house conditions (reference value: 92.4 +/-5.6%)
# Pyricularia oryzae [5] = test: Antifungal activity against Magnaporthe oryzae in rice seedlings assessed as rice yield at 15% with formulation dose of 400 g/667 m'2 applied using knapsack sprayer measured under field trials (reference value: 5940.6 +/-1.8 kg/hm'2)
# Pyricularia oryzae [6] = test: Antifungal activity against Magnaporthe oryzae in rice seedlings assessed as rice blast disease control efficacy treated after fungal inoculation at 15% measured under green house conditions
# Pyricularia oryzae [7] = test: Antifungal activity against Magnaporthe oryzae in rice seedlings assessed as rice blast disease incidence treated 24 hr prior to fungal inoculation at 15% measured at 6 days post-inoculation under green house conditions (reference value: 92.4 +/-5.6%)
# Pyricularia oryzae [8] = test: Antifungal activity against Magnaporthe oryzae in rice seedlings assessed as rice blast disease control efficacy treated 24 hr prior to fungal inoculation at 15% measured at 6 days post-inoculation under green house conditions
# Pyricularia oryzae [9] = test: Antifungal activity against Magnaporthe oryzae in rice seedlings assessed as rice yield at 15% with formulation dose of 200 g/667 m'2 applied using knapsack sprayer measured under field trials (reference value: 5940.6 +/-1.8 kg/hm'2)
# Pyricularia oryzae [10] = test: Antifungal activity against Magnaporthe oryzae in rice seedlings assessed as rice blast disease incidence at 15% with formulation dose of 200 g/667 m'2 applied using knapsack sprayer measured under field trials (reference value: 43.7 +/-5.4%)
compound,measurement,setting,value
O=C(O)CCNc1ccccc1 [PHENAMINO METHYL ACETIC ACID],Activity,Pyricularia oryzae [1],18.3%
same,Efficacy,Pyricularia oryzae [2],75.5%
same,Efficacy,Pyricularia oryzae [3],68.3%
same,Activity,Pyricularia oryzae [4],60%
same,Activity,Pyricularia oryzae [5],6275.7 Kg/hr.m2
same,Efficacy,Pyricularia oryzae [6],73.6%
same,Activity,Pyricularia oryzae [7],62.5%
same,Efficacy,Pyricularia oryzae [8],74.3%
same,Activity,Pyricularia oryzae [9],6480.5 Kg/hr.m2
same,Activity,Pyricularia oryzae [10],18.3%
